Results from patent US9238796B2, “Cell growth-promoting peptide and use thereof” (TOAGOSEI CO., LTD., priority 2010, dated 2016).
No end group written: not given here.

How the values were obtained:
[1] = tested on: Rat bone marrow-derived stem cells (mesenchymal stem cells); test: Evaluation of cell growth-promoting activity, WST-8 colorimetric method (Example 5); type: cell-based; conditions: WST-8 absorbance at 450 nm, peptide approximately 2 μM, bFGF 10 ng/mL; for OD450 at the start of cultivation: day 0; for OD450 after 4 days: day 4
Description: (§1) Experimental sections were set up that used the cell growth-promoting peptides obtained in Example 4 (samples 22 to 42) as a cell growth promoter and that used a commercially available bFGF as a cell growth promoter as a comparative example. For the control, a peptide-free section (the bFGF was also not added) was set up.
(§2) The details of the evaluation testing are provided below. Each synthesized sample peptide was dissolved in PBS (phosphate-buffered physiological saline) to prepare a stock solution with a peptide concentration of 1 mM.
(§3) Rat bone marrow-derived stem cells (mesenchymal stem cells) were used as the test cells. Specifically, the test stem cells were cultured by passage on Dulbecco's MEM medium (DMEM medium: Gibco product) containing 10% fetal bovine serum (FBS: Gibco product), 2 mM of L-glutamine, 50 unit/mL of penicillin, and 50 μg/mL of streptomycin. From the second passage to the fourth passage (passages 2 to 4) were used in this evaluation testing.
(§4) Thus, the test stem cells were preliminarily recovered by treatment with a 0.05% trypsin-0.53 mM EDTA solution; a test stem cell solution, prepared with the DMEM medium containing 10 ng/mL of bFGF to provide 1×10^4 cells/mL, was seeded to each well of a 96-well plate to provide a cell count of 1×10^3 per well; and pre-cultivation was carried out overnight. The amount of medium was brought to 100 μL per well for this.
(§5) The medium in each well was then exchanged for fresh medium to which a stock solution of a peptide selected from sample 22 to 42 had been added, so as to give a concentration of the peptide in each well of approximately 2 μM. For comparison, in some wells the medium in the well was exchanged for fresh medium to which a commercially available bFGF (product of PeproTech) had been added to give a concentration of 10 ng/mL (the bFGF experimental section in Table 6).
(§6) After the addition of the sample peptide or bFGF as indicated above, the 96-well plate was placed in a CO2 incubator and cultivation at quiescence was carried out at 37° C. under 5% CO2. Medium exchange was performed every other day. The exchange medium was the same as that used at the start of cultivation (i.e., the same sample peptide or bFGF was also added to the exchange medium as in the sample peptide addition section or bFGF addition section).
During this cultivation test, a “water-soluble tetrazolium salt (WST-8)” was added as a chromogenic reagent to some wells at the start of cultivation (day 0) and at four days after the start of cultivation (day 4). After incubation for 2 hours after the addition, the cell culture fluid to which the chromogenic reagent had been added was recovered. The extent of cell growth was evaluated by a colorimetric method in which, based on reduction of the tetrazolium salt, the absorbance (OD450) at a wavelength of 450 nm was measured.

[2] = tested on: Rat bone marrow-derived stem cells (mesenchymal stem cells); test: Evaluation of cell growth-promoting activity, WST-8 colorimetric method (Example 2); type: cell-based; conditions: WST-8 absorbance at 450 nm, peptide approximately 2 μM, bFGF 10 ng/mL
Description: as §1, with “1” for “4”, “1” for “22”, “21)” for “42)”
as §2, §3, §4
as §5, with “1” for “22”, “21” for “42”, “3).” for “6).”
as §6
During this cultivation test, a “water-soluble tetrazolium salt (WST-8)” was added as a chromogenic reagent to some wells at the start of cultivation (day 0), at two days after the start of cultivation (day 2), and at four days after the start of cultivation (day 4). After incubation for 2 hours after the addition, the cell culture fluid to which the chromogenic reagent had been added was recovered. The extent of cell growth was evaluated by a colorimetric method in which, based on reduction of the tetrazolium salt, the absorbance (OD450) at a wavelength of 450 nm was measured.

Row | Substance | OD450 at the start of cultivation [1] | OD450 after 4 days [1] | OD450 at the start of cultivation ([2]; day 0) | OD450 after 2 days ([2]; day 2) | OD450 after 4 days ([2]; day 4)
1 | MLPGLALLLLAAWTGKKRTLRKNDRKKR (MLPGLALLLLAAWTGKKRTLRKNDRKKR-NH2) [compound 35] | 0.051 | 0.299 |  |  | 
2 | MLPGLALLLLAGKKRTLRKNDRKKR (MLPGLALLLLAGKKRTLRKNDRKKR-NH2) [compound 38] | 0.051 | 0.491 |  |  | 
3 | MLPGLALLLLGKKRTLRKNDRKKR (MLPGLALLLLGKKRTLRKNDRKKR-NH2) [sample 39] | 0.051 | 0.538 |  |  | 
4 | PGLALLLLAAWTARAGKKRTLRKNDRKKR (PGLALLLLAAWTARAGKKRTLRKNDRKKR-NH2) [compound 23] | 0.051 | 0.391 |  |  | 
5 | WTARAGKKRTLRKNDRKKR (WTARAGKKRTLRKNDRKKR-NH2) [compound 33] | 0.051 | 0.407 |  |  | 
6 | basic fibroblast growth factor [bFGF, reference compound] | 0.051 | 0.499 | 0.058 | 0.196 | 0.484
